Experiments:
Type in all cases: cell-based, human
[1] = system: ENaC; test: ENaC current in HBEC after increasing cytokine concentrations for 7 days (FIGS. 9-11); conditions: for ENaC activity with increasing cytokine concentration: 7 days (FIGS. 9, 11)
Method: FIG. 9: ENaC Activity in Human Bronchial Epithelial Cells after Exposure to Increasing Concentrations of TNF-α for 7 Days. Human bronchial epithelial cells (HBEC) were treated with different concentrations of TNF-α (0.00005, 0.0005, 0.005, 0.05, 0.5, 5, 50 or 500 ng/mL media) for 7 days.
FIG. 10: ENaC Activity in Human Bronchial Epithelial Cells after Exposure to Increasing Concentrations of IFN-γ for 7 Days. HBEC were treated with IFN-γ (0.00005, 0.0005, 0.005, 0.05, 0.5, 5, 50 or 500 ng/mL media) for 7 days.
FIG. 11: ENaC Activity in Human Bronchial Epithelial Cells after Exposure to Increasing Concentrations of TGF-β1 for 7 Days. HBEC were treated with TGF-β1 (0.00005, 0.0005, 0.005, 0.05, 0.5, 5, 50 or 500 ng/mL media) for 7 days.
In some embodiments, HBECs were treated with different concentrations of TNF-α ranging from 0.00005 ng/mL to 500 ng/mL TNF-α (e.g., 0.00005, 0.0005, 0.005, 0.05, 0.5, 5, 50 or 500 ng/mL TNF-α in media) for 7 days.

[2] = system: ENaC; test: Benzamil-sensitive Isc (ENaC activity) in differentiated HBECs, Ussing chamber; conditions: for cytokine concentration that decreased benzamil-sensitive Isc: 7 days incubation
Method: (§1) High individual variation in benzamil-sensitive current and TEER in HBECs. In an Ussing chamber-based experimental design, basal short-circuit current (Isc) and transepithelial electrical resistance (TEER) were recorded in differentiated HBECs from two lung donors that were grown on snapwells at an air-liquid interface for 28 to 35 days. Benzamil, a potent ENaC blocker was used to determine ENaC activity by calculating benzamil-sensitive Isc from changes in Isc that occur 15 minutes after adding 6 μM benzamil to the apical side of cells. […] Therefore, normalized data were used for all subsequent experiments for statistical analyses relating to FIGS. 13-18.
(§2) Basal treatment with cytokines [IL-13 (Abcam), IL-4 (PeproTech), TNF-α, IFN-γ and TGF-β1 (R&D Systems)] diluted in ALI medium started as early as day 14 post differentiation. Individual cytokines or cytokine cocktails were added to the culture medium at the desired concentrations and cells were incubated with the cytokines for a maximum of 16 days. ALI medium containing cytokines was changed every two days. Age-matched HBECs were assigned to the following treatment groups:
(§3) II Time-dependent studies: These studies were done using a concentration that ensured maximum inhibition of benzamil-sensitive Isc and TEER. HBECs were treated with respective cytokines for 2, 4, 6, 8, 10, 12, 14, or 16 days. IFN-γ, TNF-α or TGF-β1 at 1 ng/mL, IL-13 at 20 ng/mL and IL-4 at 2 ng/mL were used.
(§4) III Cytokine cocktails: were prepared using IFN-γ and TNF-α at 0.05, 0.5, 2.5, 5 and 10 ng/mL while TNF-α, IFN-γ and TGF-β1 at 1 ng/mL for each of the cytokines was added to the culture media for 7 days.
(§5) Ussing chamber experiments: Snapwells with differentiated HBECs that were incubated with cytokines or age-matched HBECs without cytokine exposure were mounted in Ussing chambers (Physiologic Instruments), and cells were either bathed in isotonic ringer solution containing 113.8 mM Na^+, 93.6 mM Cl^−, 25 mM HCO3^−, 5.2 mM K^+, 2.4 mM HPO4^−, 0.4 mM H2PO4^−, 1.2 mM Mg^2+, 1.2 mM Ca^2+, and 75 mM mannitol, or in AA-EC01. Glucose (5 mM) was added to the basal side, and chambers were bubbled with 95% O2 and 5% CO2 at 37° C. AA-EC01 contained 8 mM lysine, 8 mM tryptophan, 8 mM arginine, 8 mM glutamine, and 1.2 mM tyrosine, and AANC contained 8 mM leucine, 8 mM cysteine, 8 mM isoleucine, 8 mM aspartic acid and 8 mM glutamate (Ajinomoto), both diluted in an electrolyte solution containing 113.8 mM Na^t, 93.6 mM Cl^−, 25 mM HCO3^−, 5.2 mM K^+, 2.4 mM HPO4^−, 0.4 mM H2PO4^−, 1.2 mM Mg′, 1.2 mM Ca^2+ and 40 mM mannitol at pH 7.4 and 300 mOsm. Cell cultures were allowed to equilibrate in the Ussing chambers for 30 minutes while continuously voltage clamped to 0 mV. Basal short circuit current (Isc) and transepithelial electrical resistance (TEER) were recorded at 30-second intervals, and benzamil-sensitive Isc was calculated from the difference of basal Isc recorded after 30 minutes and Isc measured at 15 minutes after adding 6 μM of benzamil (ThermoFisher) to the apical side.
(§6) Statistical analysis: Results are presented as mean±standard error of mean (SEM). Analyses were performed with OriginPro 2018 software package. For each treatment group, values were tested for normal distribution using the Shapiro-Wilk normality test. […] The values were normalized to controls within the group, and data were pooled for comparison between groups. Kruskal-Wallis test was used for comparing the overall effect of ringer, AA-EC01 and AANC on benzamil-sensitive Isc and TEER, and Mann Whitney U test was used for pairwise comparison within the group and for comparison between basal values for each cytokine at zero ng/mL or day zero with each concentration and time period studied. P<0.05 was considered significant, and NS indicates not significant.

[3] = system: HBECs; test: TEER (epithelial barrier function) in differentiated HBECs, Ussing chamber; conditions: for TEER, normalized to control: day 16; for cytokine concentration that increased TEER / epithelial resistance: 7 days incubation
Method: as §1, §2, §3, §4, §5, §6

Row | Substance | ENaC activity with increasing cytokine concentration [1] | benzamil-sensitive Isc, normalized to control ([2]; 1 ng/mL cytokine, day 4) | benzamil-sensitive Isc, normalized to control ([2]; 1 ng/mL cytokine, day 16) | cytokine concentration that decreased benzamil-sensitive Isc [2] | benzamil-sensitive Isc, normalized to control (plateau of reduction) ([2]; TNF-α around 10 ng/mL, 7 days) | TEER, normalized to control ([3]; 1 ng/mL cytokine) | benzamil-sensitive Isc, normalized to control ([2]; 2 ng/mL IL-4, day 4) | benzamil-sensitive Isc, normalized to control (maximum reduction) ([2]; 2 ng/mL IL-4, day 10) | TEER, normalized to control (maximum inhibition) ([3]; 2 ng/mL IL-4, day 10) | IFN-γ concentration at which ENaC current decreased relative to baseline ([1]; 7 days (FIG. 10)) | IFN-γ concentration with significant decrease in ENaC activity ([1]; 7 days (FIG. 10)) | benzamil-sensitive Isc, of baseline values ([2]; IFN-γ 5×10^−4 ng/mL, 7 days, normalized to control) | cytokine concentration that increased TEER / epithelial resistance [3] | benzamil-sensitive Isc, normalized to control ([2]; TGF-β1 0.5 ng/mL, 7 days) | benzamil-sensitive Isc, normalized to control ([2]; TGF-β1 50 ng/mL, 7 days) | TEER over time ([3]; 1 ng/mL cytokine, up to 16 days)
1 | TNF-α | concentration-dependent decrease | 81.2±5.4% | 39.2±2.4% | ≥ 0.05 ng/mL | 17.4±3.6% | 132.6±9.0% |  |  |  |  |  |  |  |  |  | 
2 | IL-4: Th2 cytokine (PeproTech) added to HBEC culture medium |  |  |  |  |  |  | 59.9±9.4% | 8.6±5% | 37.5±2% |  |  |  |  |  |  | 
3 | IFN-γ: type II IFN family cytokine (R&D Systems) added to HBEC culture medium |  |  | 43.7±7.0% | > 20 ng/mL |  | 142.5±12.3% |  |  |  | > 0.05 ng/mL media | > 5 ng | 161.62±9.7% | ≥ 0.5 ng/mL |  |  | 
4 | TGF-β1: Treg cytokine (R&D Systems) added to HBEC culture medium | concentration-dependent decrease | 64.4±8.3% | 20.3±5.8% | ≥ 0.5 ng/mL |  |  |  |  |  |  |  |  | ≥ 5 ng/mL | 70.4±2.5% | 1.5±0.3% | remained unaffected
